20 molecules from US6525053B1, “Prostaglandin endoperoxide H synthase biosynthesis inhibitors” (Abbott Laboratories, priority 1997, dated 2003) can be followed below.

The term melting point denotes the temperature of the solid-liquid transition.

One data set deals with T1, recombinant human Cox-2 (Homo sapiens, UniProt P35354).
T1 construct: made in house; host or cells: baculovirus/Sf9 insect cells (microsomes)
T1 sequence (P35354 18-604): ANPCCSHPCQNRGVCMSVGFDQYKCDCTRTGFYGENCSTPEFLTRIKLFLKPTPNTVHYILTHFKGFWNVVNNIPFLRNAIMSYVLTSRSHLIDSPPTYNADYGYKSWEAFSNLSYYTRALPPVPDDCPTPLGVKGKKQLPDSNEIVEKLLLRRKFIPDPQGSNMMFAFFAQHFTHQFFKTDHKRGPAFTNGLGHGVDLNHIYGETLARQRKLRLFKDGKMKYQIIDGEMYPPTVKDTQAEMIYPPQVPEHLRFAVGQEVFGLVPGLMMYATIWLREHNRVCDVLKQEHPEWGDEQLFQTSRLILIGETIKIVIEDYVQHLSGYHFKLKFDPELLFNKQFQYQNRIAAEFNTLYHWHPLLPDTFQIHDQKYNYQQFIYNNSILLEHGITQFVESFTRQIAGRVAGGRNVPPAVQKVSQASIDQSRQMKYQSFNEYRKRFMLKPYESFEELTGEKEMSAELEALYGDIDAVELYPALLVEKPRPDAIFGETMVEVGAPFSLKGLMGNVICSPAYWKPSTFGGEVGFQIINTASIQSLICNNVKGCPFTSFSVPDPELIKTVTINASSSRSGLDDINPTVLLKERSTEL
Put plainly: Recombinant human PGHS-2 (Cox-2) enzyme assay, PGE2 by EIA. It is filed as biochemical. The following applies: at 1000 nM. The method, then:
To compare the mean responses of the treatment groups, analysis of variance was applied. Percent inhibition values were determined by comparing the individual treatment mean values to the mean of the control group. Linear regression was used to estimate IC50's/ED50's in appropriate assays.
EIA reagents for prostaglandin determination were purchased from Perseptive Diagnostics, (Cambridge, Mass.). PGE2 levels in lavage fluids were determined after the samples were dried under nitrogen and reconstituted with assay buffer. PGE2 levels in enzyme assays or cell culture media were measured against standards prepared in the same milieu. The immunoassays were conducted as recommended by the manufacturer. The EIA was conducted in 96 well microtiter plates (Nunc Roskilde, Denmark) and optical density was measured using a microplate reader (Vmax, Molecular Devices Corp., Menlo Park, Calif.).
Inhibition of prostaglandin biosynthesis in vitro was evaluated using recombinant human Cox-1 (r-hu Cox1) and Cox-2 (r-hu Cox2) enzyme assays. […] PGE2 production in the presence and absence of the drug was determined by EIA analysis. The EIA was conducted in 96 well microtiter plates (Nunc Roskilde, Denmark) and optical density was measured using a microplate reader (Vmax, Molecular Devices Corp., Menlo Park, Calif.). […] PGE2 levels were measured against standards prepared in the same milieu. […]
As for `CS(=O)(=O)c1ccc(-c2cc(=O)n(CC(F)(F)F)nc2-c2ccc(F)cc2)cc1` [Example 22, 2-(2,2,2-Trifluoroethyl)-5-(4-methylsulfonylphenyl)-6-(4-fluorphenyl)-3(2H)-pyridazinone], the “RHUCX2 Cox-2 percent inhibition” value is on record as 46 @ 1000%.

Test system in another data set: not given
Test: not given
Conditions: not given
Consider `CS(=O)(=O)c1ccc(-c2cc(=O)[nH]nc2-c2ccc(F)cc2)cc1` [Example 6, 5-(4-Methylsulfonylphenyl)-6-(4-fluorophenyl)-3(2H)-pyridazinone], for which the melting point was in the range of 260 to 262 °C.
On the same count and under the same terms, to `CS(=O)(=O)c1ccc(-c2cc(=O)n(Cc3ccccc3)nc2-c2ccc(F)cc2)cc1` [Example 7, 2-Benzyl-5-(4-methylsulfonylphenyl)-6-(4-fluorophenyl)-3(2H)-pyridazinone] belongs 172 to 174 °C.
Same read-out and setting: the same measure for `Cn1nc(-c2ccc(F)cc2)c(-c2ccc(S(C)(=O)=O)cc2)cc1=O` [Example 8, 2-Methyl-5-(4-methylsulfonylphenyl)-6-(4-fluorophenyl)-3(2H)-pyridazinone]: 181 to 182 °C.
In turn, `CCn1nc(-c2ccc(F)cc2)c(-c2ccc(S(C)(=O)=O)cc2)cc1=O` [Example 9, 2-Ethyl-5-(4-methylsulfonylphenyl)-6-(4-fluorophenyl)-3(2H)-pyridazinone] had a melting point of 177 to 179 °C.
Same read-out and setting: the same measure for `CS(=O)(=O)c1ccc(-c2cc(=O)n(Cc3ccc(F)cc3)nc2-c2ccc(F)cc2)cc1` [Example 10, 2-(4-Fluorobenzyl)-5-(4-methylsulfonylphenyl)-6-(4-fluorophenyl)-3(2H)-pyridazinone]: 150 to 151 °C; for `CCCCn1nc(-c2ccc(F)cc2)c(-c2ccc(S(C)(=O)=O)cc2)cc1=O` [Example 11, 2-(n-Butyl)-5-(4-methylsulfonylphenyl)-6-(4-fluorophenyl)-3(2H)-pyridazinone]: 111 to 113 °C.
Same read-out and setting: the same measure for `CC(c1ccc(F)cc1)n1nc(-c2ccc(F)cc2)c(-c2ccc(S(C)(=O)=O)cc2)cc1=O` (stereo not drawn) [Example 12, 2-(4-Fluoro-α-methylbenzyl)-5-(4-methylsulfonylphenyl)-6-(4-fluorophenyl)-3(2H)-pyridazinone]: 185 to 186 °C; for `CCCn1nc(-c2ccc(F)cc2)c(-c2ccc(S(C)(=O)=O)cc2)cc1=O` [Example 13, 2-(n-Propyl)-5-(4-methylsulfonylphenyl)-6-(4-fluorophenyl)-3(2H)-pyridazinone]: 155 to 157 °C.
The same measure, in the same setting: the same measure for `CCCCCn1nc(-c2ccc(F)cc2)c(-c2ccc(S(C)(=O)=O)cc2)cc1=O` [Example 14, 2-(n-Pentyl)-5-(4-methylsulfonylphenyl)-6-(4-fluorophenyl)-3(2H)-pyridazinone]: 65 to 67 °C; for `CS(=O)(=O)c1ccc(-c2cc(=O)n(CC3CCCCC3)nc2-c2ccc(F)cc2)cc1` [Example 15, 2-Cyclohexylmethyl-5-(4-methylsulfonylphenyl)-6-(4-fluorophenyl)-3(2H)-pyridazin-one]: 175 to 176 °C.
The molecule `CS(=O)(=O)c1ccc(-c2cc(=O)n(CC(=O)c3ccccc3)nc2-c2ccc(F)cc2)cc1` [Example 16, 2-Phenacyl-5-(4-methylsulfonylphenyl)-6-(4-fluorophenyl)-3(2H)-pyridazinone] came in with a melting point of 178 to 180 °C.
Same read-out and setting: the same measure for `C#CCn1nc(-c2ccc(F)cc2)c(-c2ccc(S(C)(=O)=O)cc2)cc1=O` [Example 17, 2-Propargyl-5-(4-methylsulfonylphenyl)-6-(4-fluorophenyl)-3(2H)-pyridazinone]: 168 to 169 °C; for `CS(=O)(=O)c1ccc(-c2cc(=O)n(C3CCCCC3)nc2-c2ccc(F)cc2)cc1` [Example 18, 2-Cyclohexyl-5-(4-methylsulfonylphenyl)-6-(4-fluorophenyl)-3(2H)-pyridazinone]: 86 to 90 °C.
For the molecule `CC#CCn1nc(-c2ccc(F)cc2)c(-c2ccc(S(C)(=O)=O)cc2)cc1=O` [Example 19, 2-(2-Butyn-1-yl)-5-(4-methylsulfonylphenyl)-6-(4-fluorophenyl)-3(2H)-pyridazinone], the melting point was 81 to 82 °C.
On to `CS(=O)(=O)c1ccc(-c2cc(=O)n(CC3CCC3)nc2-c2ccc(F)cc2)cc1` [Example 20, 2-(Cyclobutylmethyl)-5-(4-methylsulfonylphenyl)-6-(4-fluorophenyl)-3(2H)-pyridazinone], for which the melting point lay within 74 to 76 °C.
Same read-out and setting: to `CC(C)=CCn1nc(-c2ccc(F)cc2)c(-c2ccc(S(C)(=O)=O)cc2)cc1=O` [Example 21] belongs 71 to 72 °C; to `CS(=O)(=O)c1ccc(-c2cc(=O)n(CC3CC3)nc2-c2ccc(F)cc2)cc1` [Example 23, 2-(Cyclopropylmethyl)-5-(4-methylsulfonylphenyl)-6-(4-fluorophenyl)-3(2H)-pyridazinone], 130 to 132 °C; to `CS(=O)(=O)c1ccc(-c2cc(=O)n(CC3CCCC3)nc2-c2ccc(F)cc2)cc1` [Example 24, 2-Cyclopentylmethyl-5-(4-methylsulfonylphenyl)-6-(4-fluorophenyl)-3(2H)-pyridazinone], 76 to 77 °C.
Regarding `CS(=O)(=O)c1ccc(-c2cc(=O)n(C3CCCC3)nc2-c2ccc(F)cc2)cc1` [Example 25, 2-Cyclopentyl-5-(4-methylsulfonylphenyl)-6-(4-fluorophenyl)-3(2H)-pyridazinone], the melting point fell in the range of 191 to 192 °C.
